{"source": "ChEMBL document CHEMBL1155854", "about": "“Conformationally constrained farnesoid X receptor (FXR) agonists: Naphthoic acid-based analogs of GW 4064” (Bioorg Med Chem Lett, 2008)", "key": {"[1]": {"experiment": "Volume of distribution at steady state in iv dosed mouse", "type": "ADME, organism-based", "details": "in vivo, read-out: Vdss"}, "[2]": {"experiment": "Oral bioavailability in mouse at 30 mg/kg", "type": "ADME, organism-based", "details": "in vivo"}, "[3]": {"molecular_target": "T1, Peroxisome proliferator-activated receptor alpha (Homo sapiens, UniProt Q07869)", "T1 sequence (Q07869 whole entry)": "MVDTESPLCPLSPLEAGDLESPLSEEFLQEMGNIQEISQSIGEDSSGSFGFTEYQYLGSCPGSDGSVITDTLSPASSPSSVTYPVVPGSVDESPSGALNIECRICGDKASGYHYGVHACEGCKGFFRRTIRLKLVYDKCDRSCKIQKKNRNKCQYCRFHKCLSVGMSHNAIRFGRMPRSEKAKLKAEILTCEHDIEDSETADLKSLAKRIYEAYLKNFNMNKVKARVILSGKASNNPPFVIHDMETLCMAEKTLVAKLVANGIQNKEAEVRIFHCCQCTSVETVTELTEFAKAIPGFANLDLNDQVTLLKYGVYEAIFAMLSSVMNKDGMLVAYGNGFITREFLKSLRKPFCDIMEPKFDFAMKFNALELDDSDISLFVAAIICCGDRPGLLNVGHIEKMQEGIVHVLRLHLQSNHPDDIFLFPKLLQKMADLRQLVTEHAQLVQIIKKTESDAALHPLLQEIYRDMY", "experiment": "Agonist activity at PPARalpha by SPA assay", "type": "functional"}, "[4]": {"experiment": "Half life in iv dosed mouse", "type": "ADME, organism-based", "details": "in vivo"}, "[5]": {"experiment": "Half life in iv dosed Beagle dog", "type": "ADME, organism-based, Canis lupus familiaris", "details": "in vivo"}, "Glucocorticoid receptor": {"molecular_target": "T2, Glucocorticoid receptor (Homo sapiens, UniProt P04150)", "T2 sequence (P04150 whole entry)": "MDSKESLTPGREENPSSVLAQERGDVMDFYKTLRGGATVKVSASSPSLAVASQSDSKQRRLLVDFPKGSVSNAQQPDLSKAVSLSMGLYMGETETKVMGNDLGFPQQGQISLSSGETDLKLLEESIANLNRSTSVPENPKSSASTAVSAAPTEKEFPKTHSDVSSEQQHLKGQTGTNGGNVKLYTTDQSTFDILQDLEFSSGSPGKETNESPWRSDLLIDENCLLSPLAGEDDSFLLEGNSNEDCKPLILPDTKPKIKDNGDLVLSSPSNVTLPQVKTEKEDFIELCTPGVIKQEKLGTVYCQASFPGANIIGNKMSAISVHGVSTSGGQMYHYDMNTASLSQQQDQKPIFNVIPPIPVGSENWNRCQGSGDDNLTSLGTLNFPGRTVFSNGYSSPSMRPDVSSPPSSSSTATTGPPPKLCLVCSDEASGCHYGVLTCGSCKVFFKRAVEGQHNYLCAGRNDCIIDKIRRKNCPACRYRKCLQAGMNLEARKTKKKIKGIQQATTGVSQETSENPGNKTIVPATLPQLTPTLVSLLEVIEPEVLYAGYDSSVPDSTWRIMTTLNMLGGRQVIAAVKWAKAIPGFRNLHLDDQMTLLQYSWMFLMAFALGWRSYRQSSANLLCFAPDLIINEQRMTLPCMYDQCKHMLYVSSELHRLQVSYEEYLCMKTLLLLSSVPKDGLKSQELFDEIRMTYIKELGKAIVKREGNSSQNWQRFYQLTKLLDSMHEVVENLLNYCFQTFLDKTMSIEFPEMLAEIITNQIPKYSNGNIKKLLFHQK", "experiment": "Agonist activity at GR by fluorescence polarization assay", "type": "functional"}, "Estrogen receptor beta": {"molecular_target": "Estrogen receptor beta (Homo sapiens, UniProt Q92731)", "sequence (Q92731 whole entry)": "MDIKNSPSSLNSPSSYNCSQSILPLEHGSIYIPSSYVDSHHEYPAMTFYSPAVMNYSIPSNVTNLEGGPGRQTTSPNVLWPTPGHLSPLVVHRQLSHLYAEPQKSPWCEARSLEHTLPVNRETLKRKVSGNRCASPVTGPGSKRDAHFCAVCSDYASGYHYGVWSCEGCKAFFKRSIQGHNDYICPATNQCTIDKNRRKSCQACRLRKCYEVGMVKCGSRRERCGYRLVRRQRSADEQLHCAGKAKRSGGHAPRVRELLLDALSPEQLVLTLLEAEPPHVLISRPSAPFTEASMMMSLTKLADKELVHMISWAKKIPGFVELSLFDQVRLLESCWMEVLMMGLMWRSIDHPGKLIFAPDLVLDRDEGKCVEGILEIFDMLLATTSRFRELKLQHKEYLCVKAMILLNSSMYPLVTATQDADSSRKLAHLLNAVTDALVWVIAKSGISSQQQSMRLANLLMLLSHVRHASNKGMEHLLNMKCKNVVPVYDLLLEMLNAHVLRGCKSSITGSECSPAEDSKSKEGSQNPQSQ", "experiment": "Agonist activity at ERbeta by fluorescence polarization assay", "type": "functional"}, "[6]": {"molecular_target": "Nuclear receptor subfamily 5 group A member 2 (Homo sapiens, UniProt O00482)", "sequence (O00482 whole entry)": "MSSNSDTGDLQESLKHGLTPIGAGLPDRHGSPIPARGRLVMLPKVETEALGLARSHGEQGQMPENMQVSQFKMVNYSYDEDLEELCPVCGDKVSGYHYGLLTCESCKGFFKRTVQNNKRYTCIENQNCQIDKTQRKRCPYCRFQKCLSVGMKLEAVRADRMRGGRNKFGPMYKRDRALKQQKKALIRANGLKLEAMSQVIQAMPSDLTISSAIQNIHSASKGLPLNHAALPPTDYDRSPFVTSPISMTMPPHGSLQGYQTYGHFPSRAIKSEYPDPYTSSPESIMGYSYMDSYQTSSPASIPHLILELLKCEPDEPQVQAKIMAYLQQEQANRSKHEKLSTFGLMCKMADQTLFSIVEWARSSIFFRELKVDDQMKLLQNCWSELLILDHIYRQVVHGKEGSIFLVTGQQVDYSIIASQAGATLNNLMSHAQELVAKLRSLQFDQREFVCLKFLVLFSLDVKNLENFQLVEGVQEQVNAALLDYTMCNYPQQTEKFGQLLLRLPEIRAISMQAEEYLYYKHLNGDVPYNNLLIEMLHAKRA", "experiment": "Agonist activity at LRH assessed as receptor-coactivator peptide interaction by FRET assay", "type": "functional"}, "[7]": {"molecular_target": "T3, Nuclear receptor ROR-alpha (Homo sapiens, UniProt P35398)", "T3 sequence (P35398 whole entry)": "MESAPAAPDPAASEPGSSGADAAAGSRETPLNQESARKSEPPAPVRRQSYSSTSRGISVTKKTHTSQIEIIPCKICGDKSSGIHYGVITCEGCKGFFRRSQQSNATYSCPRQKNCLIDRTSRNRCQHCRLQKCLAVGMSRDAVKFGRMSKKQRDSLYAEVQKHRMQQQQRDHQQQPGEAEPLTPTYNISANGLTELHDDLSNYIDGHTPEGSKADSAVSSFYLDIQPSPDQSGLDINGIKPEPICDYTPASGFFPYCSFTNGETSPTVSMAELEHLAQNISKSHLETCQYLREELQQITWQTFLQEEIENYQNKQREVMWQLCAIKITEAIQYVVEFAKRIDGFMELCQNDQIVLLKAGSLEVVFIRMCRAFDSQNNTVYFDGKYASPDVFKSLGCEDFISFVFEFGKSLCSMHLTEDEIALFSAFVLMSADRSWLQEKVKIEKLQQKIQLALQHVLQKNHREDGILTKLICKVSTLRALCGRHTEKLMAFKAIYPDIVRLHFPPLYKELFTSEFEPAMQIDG", "experiment": "Agonist activity at RORalpha assessed as receptor-coactivator peptide interaction by FRET assay", "type": "functional"}, "[8]": {"experiment": "Clearance in iv dosed cynomolgus monkey", "type": "ADME, organism-based, Macaca fascicularis", "details": "in vivo"}, "[9]": {"experiment": "Volume of distribution at steady state in iv dosed rat", "type": "ADME, organism-based", "details": "in vivo, read-out: Vdss"}, "[10]": {"experiment": "Volume of distribution at steady state in iv dosed Beagle dog", "type": "ADME, organism-based, Canis lupus familiaris", "details": "in vivo, read-out: Vdss"}, "Cytochrome P450 3A4 [11]": {"molecular_target": "T4, Cytochrome P450 3A4 (Homo sapiens, UniProt P08684)", "T4 sequence (P08684 whole entry)": "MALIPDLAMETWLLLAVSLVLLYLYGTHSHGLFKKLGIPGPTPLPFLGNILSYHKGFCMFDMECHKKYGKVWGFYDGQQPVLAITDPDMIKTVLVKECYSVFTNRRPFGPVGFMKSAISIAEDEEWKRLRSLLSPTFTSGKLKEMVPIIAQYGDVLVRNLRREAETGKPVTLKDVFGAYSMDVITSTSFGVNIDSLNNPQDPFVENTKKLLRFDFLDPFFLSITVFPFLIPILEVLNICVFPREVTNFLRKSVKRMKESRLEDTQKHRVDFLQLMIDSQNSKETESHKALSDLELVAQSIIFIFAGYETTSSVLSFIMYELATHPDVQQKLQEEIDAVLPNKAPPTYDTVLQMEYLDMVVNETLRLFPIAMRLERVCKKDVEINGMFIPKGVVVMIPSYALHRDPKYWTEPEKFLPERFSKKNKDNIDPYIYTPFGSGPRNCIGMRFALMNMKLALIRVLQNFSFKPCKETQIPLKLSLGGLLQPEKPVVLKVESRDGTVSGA", "experiment": "Inhibition of CYP3A4 in pooled human liver microsome using midazolam substrate", "type": "ADME, microsomes"}, "Cytochrome P450 3A4 [12]": {"molecular_target": "T4, Cytochrome P450 3A4", "experiment": "Inhibition of CYP3A4 in pooled human liver microsome using atrovastatin substrate", "type": "ADME, microsomes"}, "Estrogen receptor": {"molecular_target": "T5, Estrogen receptor (Homo sapiens, UniProt P03372)", "T5 sequence (P03372 whole entry)": "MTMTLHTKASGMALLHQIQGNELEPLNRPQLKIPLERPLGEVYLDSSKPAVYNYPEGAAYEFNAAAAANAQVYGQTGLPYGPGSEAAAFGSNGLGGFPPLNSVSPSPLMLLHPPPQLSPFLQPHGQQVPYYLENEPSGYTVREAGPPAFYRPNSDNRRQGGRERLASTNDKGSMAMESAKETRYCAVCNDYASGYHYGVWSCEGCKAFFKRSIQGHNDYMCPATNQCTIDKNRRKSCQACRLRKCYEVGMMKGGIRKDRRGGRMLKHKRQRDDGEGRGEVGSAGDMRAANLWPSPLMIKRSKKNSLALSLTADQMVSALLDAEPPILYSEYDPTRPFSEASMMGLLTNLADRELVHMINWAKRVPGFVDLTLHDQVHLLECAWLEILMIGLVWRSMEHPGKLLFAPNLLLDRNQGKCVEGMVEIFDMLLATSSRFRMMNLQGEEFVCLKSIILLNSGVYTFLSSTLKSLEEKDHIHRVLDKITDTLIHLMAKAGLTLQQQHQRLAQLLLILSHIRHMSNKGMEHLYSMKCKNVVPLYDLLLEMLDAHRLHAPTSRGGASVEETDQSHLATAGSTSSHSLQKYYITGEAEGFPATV", "experiment": "Agonist activity at ERalpha by fluorescence polarization assay", "type": "functional"}, "Cytochrome P450 3A4 [13]": {"molecular_target": "T4, Cytochrome P450 3A4", "experiment": "Inhibition of CYP3A4 in pooled human liver microsome using nifedipine substrate", "type": "ADME, microsomes"}}, "data": [{"smiles": "CC(C)c1onc(-c2c(Cl)cccc2Cl)c1COc1ccc(-c2ccc3c(C(=O)O)cccc3c2)cc1", "values": [{"measurement": "Vd", "setting": "[1]", "result": 0.4, "unit": "L/kg"}, {"measurement": "bioavailability", "setting": "[2]", "result": 3.9, "unit": "%"}, {"measurement": "XC50", "setting": "[3]", "result": "> 10", "unit": "µM"}, {"measurement": "half-life", "setting": "[4]", "result": 1.6, "unit": "h"}, {"measurement": "half-life", "setting": "[5]", "result": 4.17, "unit": "h"}, {"measurement": "XC50", "setting": "Glucocorticoid receptor", "result": "> 20", "unit": "µM"}, {"measurement": "XC50", "setting": "Estrogen receptor beta", "result": "> 20", "unit": "µM"}, {"measurement": "XC50", "setting": "[6]", "result": "> 10", "unit": "µM"}, {"measurement": "XC50", "setting": "[7]", "result": "> 10", "unit": "µM"}, {"measurement": "clearance", "setting": "[8]", "result": 5.5, "unit": "mL/min/kg"}, {"measurement": "Vd", "setting": "[9]", "result": 1, "unit": "L/kg"}, {"measurement": "Vd", "setting": "[10]", "result": 0.48, "unit": "L/kg"}, {"measurement": "IC50", "setting": "Cytochrome P450 3A4 [11]", "result": 7.2, "unit": "µM"}, {"measurement": "IC50", "setting": "Cytochrome P450 3A4 [12]", "result": 4.6, "unit": "µM"}, {"measurement": "XC50", "setting": "Estrogen receptor", "result": "> 20", "unit": "µM"}, {"measurement": "IC50", "setting": "Cytochrome P450 3A4 [13]", "result": 8.8, "unit": "µM"}]}]}
